{"source": "patent US20110224232A1", "about": "(Board of Regents, The University of Texas System, priority 2008, published 2011)", "key": {"[1]": {"test_system": "invasive pulmonary aspergillosis", "conditions": "high doses, 40 mg/kg per day; cited from earlier work"}, "[2]": {"test_system": "Aspergillus fumigatus clinical isolate 293 (AF 293)", "experiment": "Survival of A. fumigatus-infected immunosuppressed mice (Kaplan-Meier)", "format": "in vivo", "conditions": "A. fumigatus-infected female ICR mice, VOR inhalation BID 30-40 mg/kg, AmB intraperitoneal QD 1 mg/kg", "from_the_text": "Conidia were harvested from Aspergillus fumigatus clinical isolate 293 (AF 293) cultures grown on potato dextrose agar (Hardy Diagnostics, Santa Maria, Calif.) by washing and scraping agar surfaces with 0.1% Tween 80 in sterile physiological saline and filtering through sterile glass wool. Conidia were re-suspended to achieve a final inoculum of ˜1×10^9 conidia/mL, as confirmed by hemocytometer counts and serial plating.\nMice were rendered immunosuppressed by intraperitoneal cyclophosphamide (250 mg/kg) and subcutaneous cortisone acetate (250 mg/kg) two days prior to inoculation (Day −2). Both cyclophosphamide (200 mg/kg intraperitoneal) and cortisone acetate (250 mg/kg subcutaneously) were re-administered on Day +3 following inoculation. Mice also received prophylactic antibiotic therapy of ceftazidime 50 mg/kg administered sub-cutaneously on Day −2 through Day +7.\nTo simulate pulmonary pathogenesis, mice were placed inside an acrylic chamber, and A. fumigatus conidia were introduced by aerosolizing the conidial suspension with a small particle nebulizer (Hudson Micro Mist, Hudson RCI, Temecula, Calif.) driven by compressed air. A standard exposure time of 1 hour was used to allow for complete aerosolization of the conidial suspension. Starting inocula were assessed by colony forming unit (CFU) enumeration from mice one hour post-inoculation.\nThe inhaled control group received 20 minute nebulizations of 100 mg/mL CAPTISOL® solutions BID beginning on Day −2 and continuing through Day +7. The intraperitoneal AmB group received 1 mg/kg Amphotericin B deoxycholate (Apothecon, Princeton, N.J.) by intraperitoneal injection (IP) once daily (QD) on Day +1 and continuing through Day +7 (FIG. 2).\nStatistical analyses were conducted as follows. Survival was plotted by Kaplan-Meier analysis, and differences in median survival and percent survival between prophylaxis groups were analyzed by the log-rank test and chi-square test, respectively, using Prism version 4 software (GraphPad, San Diego, Calif.). […] A p-value of ≦0.05 was considered statistically significant for all comparisons."}, "Aspergillus fumigatus [3]": {"test_system": "Aspergillus fumigatus", "experiment": "Pulmonary fungal burden by colony forming units in infected mice", "format": "in vivo", "procedure": "(§1) Mice were monitored for an additional 5 days following discontinuation of treatment. Animals that appeared moribund prior to the end of the study were euthanized by halothane and death was recorded as occurring the next day. 12 mice were randomly selected from each group and euthanized on Day +8 for fungal burden analysis while any remaining mice were euthanized on Day +12. 2 additional mice were randomly selected from each group and euthanized on Day +8 and Day +12 for histological analysis\nLungs were homogenized in sterile saline (total volume 2 mL) supplemented with gentamicin and chloramphenicol using a tissue homogenizer (Polytron Dispensing and Mixing Technology PT 2100, Kinematica, Cincinnati, Ohio). Serial dilutions were prepared in sterile saline and plated in duplicate onto potato dextrose agar. Following 24 hours of incubation at 37° C., colonies were enumerated and colony forming units (CFU) per gram of lung tissue for each animal were calculated.\n(§2) Statistical analyses were conducted as follows. Survival was plotted by Kaplan-Meier analysis, and differences in median survival and percent survival between prophylaxis groups were analyzed by the log-rank test and chi-square test, respectively, using Prism version 4 software (GraphPad, San Diego, Calif.). Differences in fungal burden endpoints (CFU/g and CE) were assessed for significance by analysis of variance with Tukey's post-test for multiple comparisons. A p-value of ≦0.05 was considered statistically significant for all comparisons."}, "Aspergillus fumigatus [4]": {"test_system": "Aspergillus fumigatus", "experiment": "Pulmonary fungal burden by real-time quantitative PCR (conidial equivalents) in infected mice", "format": "in vivo", "conditions": "Day + 8 per table footnote", "procedure": "as §1\nPulmonary fungal burden was also quantified by real-time quantitative polymerase chain reaction (qPCR) using previously described methods. Briefly, DNA was extracted from […] of lung homogenate with the use of a commercially available kit (DNeasy Tissue Kit, Qiagen, Valencia, Calif.) according to the manufacturer's instructions. DNA samples were analyzed in duplicate with the use of the ABI PRISM 7300 sequence-detection system (Applied Biosystems, Foster City, Calif.) with primers and dual-labeled fluorescent hybridization probes specific for the A. fumigatus 1,3-β-glucan synthase (FKS) gene (GenBank accession number U79728). The threshold cycle (Ct) of each sample was interpolated from a six-point standard curve generated by spiking naive mouse lungs with known amounts of conidia (102 to 107). An internal standard was amplified in separate reactions to correct for differences in DNA recovery. The resulting data was expressed as conidial equivalents (CE).\nas §2"}, "A. fumigatus": {"test_system": "A. fumigatus", "experiment": "Lung histopathology, pulmonary lesion counts in A. fumigatus-infected mice", "format": "in vivo, Aspergillus fumigatus", "procedure": "Histopathological changes in lung tissue were evaluated and compared for four mice in each of the inhaled voriconazole, inhaled control, and intraperitoneal AmB groups. The inhaled control was aerosolized CAPTISOL® at a concentration of 100 mg/mL over 20 minutes. On day 8 post inoculation, animals were euthanized using halothane and 10% volume/volume formaldehyde was instilled into the lungs via the trachea. Lungs were then harvested and placed into 10% volume/volume formaldehyde. Tissue was fixed in formaldehyde for an adequate period of time followed by processing and embedding into paraffin wax. Coronal sections of the entire lung were obtained at a thickness of 4-6 μm and mounted on slides. Sections were stained with hematoxylin and eosin and viewed by light microscopy with a Zeiss AxioVision Imager at 10× magnification. Two investigators were blinded and independently evaluated each lung section. The extent of lung damage caused by invasive hyphae was recorded and quantified by counting and normalizing the number of gross lesions.\nNormalization of the histopathology results was achieved by using the number of lung pieces (sections) on the slide as a denominator. The total number of lesions on the slide were counted and then divided by the number of pieces of tissue on that slide. This was done because the number of pieces of tissue per slide (again, all from the same cut of lung from the same animal) ranged from 4 to 9. For example, the normalized number of lesions would be 0.4 if 2 lesions were observed on a slide with 5 lung pieces. Similarly, the normalized value would be 0.14 if 1 lesion was observed on a slide with 7 lung pieces."}, "[5]": {"conditions": "underivatized; cited from earlier work"}, "[6]": {"conditions": "normalized lesions, listed as AmB"}}, "note": "“And” between values parts separate entries of the source, which are not always exact repeats. Equal entries are not always repeated."}
{"compound": "CC[C@@H]([C@H](C)O)n1ncn(-c2ccc(N3CCN(c4ccc(OC[C@@H]5CO[C@@](Cn6cncn6)(c6ccc(F)cc6F)C5)cc4)CC3)cc2)c1=O", "note": "[posaconazole]", "values": [{"measurement": "fungal burden as measured by quantitative real-time PCR", "setting": "[1]", "value": "significant reductions in fungal burden"}]}
{"compound": "Amphotericin B deoxycholate", "values": [{"measurement": "Percent Survival", "setting": "[2]; to Day +12", "value": 23.1, "unit": "%"}, {"measurement": "Median Survival", "setting": "[2]", "value": 7, "unit": "days"}, {"measurement": "A - Day 8 Fungal Burden Determined by CFU, Mean", "setting": "Aspergillus fumigatus [3]; Day +8", "value": 4.37, "unit": "log10 CFU"}, {"measurement": "A - Day 8 Fungal Burden Determined by CFU, Median", "setting": "Aspergillus fumigatus [3]; Day +8", "value": 4.33, "unit": "log10 CFU"}, {"measurement": "A - Day 8 Fungal Burden Determined by CFU, Range", "setting": "Aspergillus fumigatus [3]; Day +8", "value": "(3.59-5.07) log10 CFU"}, {"measurement": "B - Fungal Burden Determined by CFU for All Mice, Mean", "setting": "Aspergillus fumigatus [3]; all samples, day 8 and day 12", "value": 4.22, "unit": "log10 CFU"}, {"measurement": "B - Fungal Burden Determined by CFU for All Mice, Median", "setting": "Aspergillus fumigatus [3]; all samples, day 8 and day 12", "value": 4.33, "unit": "log10 CFU"}, {"measurement": "B - Fungal Burden Determined by CFU for All Mice, Range", "setting": "Aspergillus fumigatus [3]; all samples, day 8 and day 12", "value": "(3.24-5.07) log10 CFU"}, {"measurement": "C - Conidial Equivalents Determined by qPCR, Mean", "setting": "Aspergillus fumigatus [4]", "value": "4.89 log10 conidial equivalents"}, {"measurement": "C - Conidial Equivalents Determined by qPCR, Median", "setting": "Aspergillus fumigatus [4]", "value": "4.95 log10 conidial equivalents"}, {"measurement": "C - Conidial Equivalents Determined by qPCR, Range", "setting": "Aspergillus fumigatus [4]", "value": "(4.49-5.38) log10 conidial equivalents"}, {"measurement": "D - Conidial Equivalents per Gram of Lung Tissue Determined by Qpcr, Mean", "setting": "Aspergillus fumigatus [4]; normalized for wet lung weight", "value": "5.50 log10 conidial equivalents per"}, {"measurement": "D - Conidial Equivalents per Gram of Lung Tissue Determined by Qpcr, Median", "setting": "Aspergillus fumigatus [4]; normalized for wet lung weight", "value": "5.57 log10 conidial equivalents per"}, {"measurement": "D - Conidial Equivalents per Gram of Lung Tissue Determined by Qpcr, Range", "setting": "Aspergillus fumigatus [4]; normalized for wet lung weight", "value": "(5.09-5.88) log10 conidial equivalents per"}, {"measurement": "lung histopathology findings (in words)", "setting": "A. fumigatus; A. fumigatus-infected mice, aerosolized voriconazole, intraperitoneal amphotericin B", "value": "marked pulmonary disease, including necrosis and the presence of invasive hyphae, was observed"}, {"measurement": "pulmonary lesions normalized for the number of lung tissue pieces per slide, Mean", "setting": "A. fumigatus; normalized lesions", "value": 0.6}, {"measurement": "pulmonary lesions normalized for the number of lung tissue pieces per slide, 25th Percentile", "setting": "A. fumigatus; [6]", "value": "0.13 and 0.1"}, {"measurement": "pulmonary lesions normalized for the number of lung tissue pieces per slide, 75th Percentile", "setting": "A. fumigatus; [6]", "value": "1.31 and 1.3"}, {"measurement": "pulmonary lesions normalized for the number of lung tissue pieces per slide, Maximum", "setting": "A. fumigatus; [6]", "value": 1.6}, {"measurement": "pulmonary lesions normalized for the number of lung tissue pieces per slide, Median", "setting": "A. fumigatus; [6]", "value": "0.28 and 0.3"}, {"measurement": "pulmonary lesions normalized for the number of lung tissue pieces per slide, Minimum", "setting": "A. fumigatus; [6]", "value": "0.13 and 0.1"}, {"measurement": "pulmonary lesions in all available histological samples, 25th Percentile", "setting": "A. fumigatus; number of lesions", "value": 1.0}, {"measurement": "pulmonary lesions in all available histological samples, 75th Percentile", "setting": "A. fumigatus; number of lesions", "value": 6.8}, {"measurement": "pulmonary lesions in all available histological samples, Maximum", "setting": "A. fumigatus; number of lesions", "value": 8.0}, {"measurement": "pulmonary lesions in all available histological samples, Mean", "setting": "A. fumigatus; number of lesions", "value": 3.3}, {"measurement": "pulmonary lesions in all available histological samples, Median", "setting": "A. fumigatus; number of lesions", "value": 2.0}, {"measurement": "pulmonary lesions in all available histological samples, Minimum", "setting": "A. fumigatus; number of lesions", "value": 1.0}]}
{"compound": "OC[C@H]1O[C@@H]2O[C@H]3[C@H](O)[C@@H](O)[C@@H](O[C@H]4[C@H](O)[C@@H](O)[C@@H](O[C@H]5[C@H](O)[C@@H](O)[C@@H](O[C@H]6[C@H](O)[C@@H](O)[C@@H](O[C@H]7[C@H](O)[C@@H](O)[C@@H](O[C@H]1[C@H](O)[C@H]2O)O[C@@H]7CO)O[C@@H]6CO)O[C@@H]5CO)O[C@@H]4CO)O[C@@H]3CO", "note": "[α-CD]", "values": [{"measurement": "water solubility at saturation", "setting": "[5]", "value": "about 14.5 % w/w"}]}
